Data from BindingDB's records for doi:10.7270/Q22R3Q4F (Broad Institute, 2010).

molecular target: T1, Alkanal monooxygenase alpha chain (Vibrio harveyi, UniProt P07740); test: bacterial growth suppression, V. harveyi, absorbance, dose retest, confirmation (AID 2723)
T1 sequence (P07740 whole entry): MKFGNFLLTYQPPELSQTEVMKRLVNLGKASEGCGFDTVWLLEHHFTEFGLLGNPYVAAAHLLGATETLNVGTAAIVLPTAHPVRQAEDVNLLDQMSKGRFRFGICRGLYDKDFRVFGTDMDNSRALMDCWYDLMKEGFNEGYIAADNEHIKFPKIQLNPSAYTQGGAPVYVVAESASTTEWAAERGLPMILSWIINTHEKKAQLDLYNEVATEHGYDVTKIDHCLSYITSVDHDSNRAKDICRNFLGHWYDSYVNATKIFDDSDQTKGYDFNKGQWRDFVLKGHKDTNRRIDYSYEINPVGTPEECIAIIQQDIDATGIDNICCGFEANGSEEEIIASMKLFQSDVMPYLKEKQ

Compound | EC50 [µM]
COc1cc(NC(=O)CN2C(=O)NC(c3ccccc3)(c3ccccc3)C2=O)cc(OC)c1 [MLS001176525] | > 160
CN(C)S(=O)(=O)c1ccc(NC(=S)NC(=O)Cc2ccccc2)cc1 [N-[[4-(dimethylsulfamoyl)phenyl]carbamothioyl]-2-phenyl-ethanamide] | > 160
Cc1cccc(NS(=O)(=O)c2ccc(Oc3ccccc3)cc2)n1 [SMR000071466] | > 160
CCCc1ccc(S(=O)(=O)N(C)S(=O)(=O)c2ccc(F)cc2)cc1 [N-(4-fluorophenyl)sulfonyl-N-methyl-4-propylbenzenesulfonamide] | 7.78
Cn1cnc(S(=O)(=O)Nc2ccc(OC(F)(F)F)cc2)c1 [SMR000314513] | > 160
C=Cn1c(C(=O)O)ccc1-c1ccc(CC)cc1 | > 160
CCc1ccc(S(=O)(=O)Nc2ccc(Br)cn2)cc1 [MLS001211346] | > 160
